Measurements: US20200008426A1, “ACTIVE COMPOUND COMBINATIONS” (BAYER AKTIENGESELLSCHAFT, priority 2017, published 2020)
Several values for one entry are separate records, joined by “and”; a condition that tells them apart may be missing. Equal entries are not always repeated. Where two headings read alike, the source gives them in different places.

Columns and labels:
Colletotrichum coccodes = assay: In vivo preventive test on Colletotrichum (tomatoes); details: 3 days after inoculation
Method: (§1) The test is evaluated 3 days after the inoculation.

Alternaria solani = assay: In vivo preventive test on Alternaria (tomatoes)
Method: The plants are then placed in an incubation cabinet at approximately 20° C. and a relative atmospheric humidity of 100%.
as §1

Phakopsora pachyrhizi = assay: In vivo preventive test on Phakopsora (soybeans); details: 7 days after inoculation
Pyricularia oryzae = type: cell-based
Septoria tritici = assay: In vivo preventive Septoria tritici test (wheat); details: 21 days after inoculation
Method: After the spray coating has been dried, the plants are sprayed with a spore suspension of Septoria tritici.
The test is evaluated 21 days after the inoculation.

Sphaerotheca fuliginea = assay: In vivo preventive test on Sphaerotheca (cucumbers); details: Table D1, 7 days after inoculation
Venturia inaequalis = assay: In vivo preventive test on Venturia (apples); details: 10 days after inoculation
Method: The test is evaluated 10 days after the inoculation.

Alternaria alternata = assay: In vitro-Test with Alternaria alternata; type: cell-based
[1] = tested on: fish (Danio rerio) embryos; assay: In vivo ecotoxicity screening test on fish (Danio rerio); details: active compound alone; fish embryos, 96 h, 28.5° C.
Method: with ECxi the Effect Concentration (EC) of each chemical i (in ppm) causing x % effect on the ecotoxicity test endpoint.
For each compound combination, the predicted ECx value is calculated. It is then compared to an experimentally measured value. The ratio of predicted versus measured effect for the combination (thereafter called the Model Deviation Ratio or MDR) is then calculated.
The environmental effect of the compound combinations was measured experimentally in laboratory ecotoxicity screening studies with fish (Danio rerio). […] Mortality was recorded after 96 h for each tested concentration and a reference control. […] Then, the MDR values were calculated.
• Solvent: 0.5% by weight dimethyl sulfoxide
This concentrate is then diluted with water to the desired a.i. concentration, leading to a maximal solvent concentration of 0.5% by weight. The compounds alone and the combinations were tested for five increasing concentrations between 0.01 and 1000 ppm a.i., (e.g. 0.1, 1.0, 10 and 100 ppm a.i). For the combinations, compounds A and B were mixed in a weight ratio of 5:1 to 1:5 and five increasing concentrations were tested for each ratio.

Puccinia triticina = assay: In vivo preventive Puccinia triticina test (wheat); details: 8 days after inoculation
Method: After the spray coating has been dried, the plants are sprayed with a spore suspension of Puccinia triticina.
(§2) The test is evaluated 8 days after the inoculation.

Pyrenophora teres = assay: In vitro-Test with Pyrenophora teres; type: cell-based; details: 100 ppm
Leptosphaeria nodorum = assay: In vivo preventive Leptosphaeria nodorum test (wheat); details: Table G1, 8 days after inoculation
Method: After the spray coating has been dried, the plants are sprayed with a spore suspension of Leptosphaeria nodorum.
as §2

[2] = Alternaria solani, 72 h, read-out: Efficacy in % found

CCCN(CC)CC1COC2(CCC(C(C)(C)C)CC2)O1 (centres unmarked) [1.020 spiroxamine, spiroxamine]
Efficacy in % found (Colletotrichum coccodes; Table B1, 25 ppm a.i.): 33% | Efficacy in % found (Colletotrichum coccodes; Table B1, 50 ppm a.i.): 44% | Efficacy in % found (Colletotrichum coccodes; Table B1, 100 ppm a.i.): 49% | Efficacy in % found (Alternaria solani; Table A1, 25 ppm a.i., 3 days after inoculation): 13% | Efficacy in % found (Alternaria solani; Table A1, 50 ppm a.i., 3 days after inoculation): 38% | Efficacy in % found (Alternaria solani; Table A1, 100 ppm a.i., 3 days after inoculation): 49% | Efficacy in % found (Phakopsora pachyrhizi; Table C1, 25 ppm a.i.): 23% | Efficacy in % found (Phakopsora pachyrhizi; Table C1, 50 ppm a.i.): 50% | Efficacy in % found (Phakopsora pachyrhizi; Table C1, 100 ppm a.i.): 75%

O=C(Nc1ccccc1)N(Cc1ccc(Cl)cc1)C1CCCC1 [4.005 pencycuron, pencycuron]
Efficacy in % found (Colletotrichum coccodes; Table B1, 25 ppm a.i.): 33% | Efficacy in % found (Colletotrichum coccodes; Table B1, 50 ppm a.i.): 33% | Efficacy in % found (Colletotrichum coccodes; Table B1, 100 ppm a.i.): 33% | pest or weed control at 25 ppm (Alternaria solani; Alternaria solani, 72 h, Table A1, 25 ppm a.i., 3 days after inoculation, read-out: Efficacy in % found): 5% | pest or weed control at 50 ppm (Alternaria solani; Alternaria solani, 72 h, Table A1, 50 ppm a.i., 3 days after inoculation, read-out: Efficacy in % found): 21% | pest or weed control at 100 ppm (Alternaria solani; Alternaria solani, 72 h, Table A1, 100 ppm a.i., 3 days after inoculation, read-out: Efficacy in % found): 33%

N#Cc1c(Cl)c(Cl)c(Cl)c(C#N)c1Cl [5.004 chlorothalonil, chlorothalonil]
Efficacy in % found (Colletotrichum coccodes; Table B2, 25 ppm a.i.): 8% | Efficacy in % found (Colletotrichum coccodes; Table B2, 50 ppm a.i.): 8% | pest or weed control at 25 ppm (Alternaria solani; Alternaria solani, 72 h, 25 ppm a.i., tomatoes, 3 days after inoculation, read-out: Efficacy in % found): 13% | pest or weed control at 50 ppm (Alternaria solani; Alternaria solani, 72 h, 50 ppm a.i., tomatoes, 3 days after inoculation, read-out: Efficacy in % found): 33%

CC(C)(C)C(O)(CCc1ccc(Cl)cc1)Cn1cncn1 (centres unmarked) [Example 1.021, tebuconazole]
Efficacy % (Pyricularia oryzae; 0.2 ppm): 87% | Efficacy % (Pyricularia oryzae; 1 ppm): 87% and 89% | Efficacy in % found (Septoria tritici; 25 ppm a.i.): 0% | Efficacy in % found (Septoria tritici; 50 ppm a.i.): 0% | Efficacy in % found (Septoria tritici; 100 ppm a.i.): 0% | Efficacy in % found (Sphaerotheca fuliginea; 2.5 ppm a.i.): 37% | Efficacy in % found (Sphaerotheca fuliginea; 5 ppm a.i.): 69% | Efficacy in % found (Sphaerotheca fuliginea; 10 ppm a.i.): 83% | Efficacy in % found (Venturia inaequalis; Table E1, 2.5 ppm a.i.): 4% | Efficacy in % found (Venturia inaequalis; Table E1, 5 ppm a.i.): 34% | Efficacy in % found (Venturia inaequalis; Table E1, 10 ppm a.i.): 44% | Efficacy % (Alternaria alternata; 0.04 ppm): 19% | Efficacy % (Alternaria alternata; 0.2 ppm): 24% | Efficacy % (Alternaria alternata; 1 ppm): 36% | Ecotoxicity LC50-96 h found [1]: 19.7 ppm a.i. | Efficacy in % found (Puccinia triticina; 25 ppm a.i.): 22% | Efficacy in % found (Puccinia triticina; 50 ppm a.i.): 78% | Efficacy in % found (Puccinia triticina; 100 ppm a.i.): 89%

Cc1nn(C)c(F)c1C(=O)Nc1ccccc1C(C)CC(C)C (centres unmarked) [Example 2.017, penflufen]
Efficacy % (Pyricularia oryzae; 1 ppm): 44% | Efficacy % (Pyricularia oryzae; 5 ppm): 91% | Efficacy in % found (Septoria tritici; 20 ppm a.i.): 29% | Efficacy in % found (Septoria tritici; 40 ppm a.i.): 0% | Efficacy in % found (Septoria tritici; 80 ppm a.i.): 0% | Ecotoxicity LC50-96 h found [1]: 0.62 ppm a.i. | Efficacy in % found (Puccinia triticina; 20 ppm a.i.): 56% | Efficacy in % found (Puccinia triticina; 40 ppm a.i.): 89% | Efficacy in % found (Puccinia triticina; 80 ppm a.i.): 100%

COc1ccnc(C(=O)N[C@H]2COC(=O)[C@H](Cc3ccccc3)[C@@H](OC(=O)C(C)C)[C@H](C)OC2=O)c1OCOC(=O)C(C)C [Example 3.025, (3S,6S,7R,8R)-8-benzyl-3-[({3-[(isobutyryloxy)methoxy]-4-methoxypyridin-2-yl}carbonyl)amino]-6-methyl-4,9-dioxo-1,5-dioxonan-7-yl 2-methylpropanoate]
Efficacy % (Pyricularia oryzae; 0.8 ppm): 91% and 67% | Efficacy % (Pyricularia oryzae; 4 ppm): 84% and 85% | Efficacy % (Pyricularia oryzae; 20 ppm): 100% and 72% | pest or weed control at 37.5 ppm (Septoria tritici; Zymoseptoria tritici, 504 h, read-out: Efficacy in % found, 37.5 ppm a.i.): 13% | pest or weed control at 150 ppm (Septoria tritici; Zymoseptoria tritici, 504 h, read-out: Efficacy in % found, 150 ppm a.i.): 63% | Efficacy % (Pyrenophora teres): 10% | pest or weed control at 5 ppm (Alternaria solani; [2]): 18% | pest or weed control at 10 ppm (Alternaria solani; [2]): 18% | pest or weed control at 20 ppm (Alternaria solani; [2]): 58% | Ecotoxicity LC50-96 h found [1]: 1.87 ppm a.i. | Efficacy in % found (Phakopsora pachyrhizi; Table C2, 5 ppm a.i.): 23% | Efficacy in % found (Phakopsora pachyrhizi; Table C2, 10 ppm a.i.): 40% | Efficacy in % found (Phakopsora pachyrhizi; Table C2, 20 ppm a.i.): 63% | pest or weed control at 37.5 ppm (Puccinia triticina; Puccinia triticina, 192 h, read-out: Efficacy in % found, Table H1, 37.5 ppm a.i.): 22% | pest or weed control at 75 ppm (Puccinia triticina; Puccinia triticina, 192 h, read-out: Efficacy in % found, Table H1, 75 ppm a.i.): 67% | pest or weed control at 150 ppm (Puccinia triticina; Puccinia triticina, 192 h, read-out: Efficacy in % found, Table H1, 150 ppm a.i.): 89%

COCC(=O)N(c1c(C)cccc1C)C(C)C(=O)OC (centres unmarked) [Example 12.003, metalaxyl]
Efficacy in % found (Septoria tritici; 250 ppm a.i.): 0% | Efficacy in % found (Septoria tritici; 500 ppm a.i.): 0% | Efficacy in % found (Septoria tritici; 1000 ppm a.i.): 0% | Efficacy in % found (Venturia inaequalis; Table E2, 50 ppm a.i.): 11% | Efficacy in % found (Venturia inaequalis; Table E2, 100 ppm a.i.): 11% | Efficacy in % found (Venturia inaequalis; Table E2, 200 ppm a.i.): 19% | Ecotoxicity LC50-96 h found [1]: >200 ppm a.i. | Efficacy in % found (Phakopsora pachyrhizi; Table C3, 50 ppm a.i.): 0% | Efficacy in % found (Phakopsora pachyrhizi; Table C3, 100 ppm a.i.): 0% | Efficacy in % found (Phakopsora pachyrhizi; Table C3, 200 ppm a.i.): 23% | Efficacy in % found (Puccinia triticina; 1000 ppm a.i.): 30% and 44% | Efficacy in % found (Leptosphaeria nodorum; 250 ppm a.i.): 29% | Efficacy in % found (Leptosphaeria nodorum; 500 ppm a.i.): 0% | Efficacy in % found (Leptosphaeria nodorum; 1000 ppm a.i.): 0%

N#Cc1c[nH]cc1-c1cccc2c1OC(F)(F)O2 [Example 13.001, fludioxonil]
Efficacy % (Pyricularia oryzae; 0.2 ppm): 82% | Efficacy % (Pyricularia oryzae; 1 ppm): 87% and 88% | Efficacy % (Pyricularia oryzae; 5 ppm): 89% and 79% | pest or weed control at 20 ppm (Septoria tritici; Zymoseptoria tritici, 504 h, read-out: Efficacy in % found, 20 ppm a.i.): 29% | pest or weed control at 40 ppm (Septoria tritici; Zymoseptoria tritici, 504 h, read-out: Efficacy in % found, 40 ppm a.i.): 29% | pest or weed control at 80 ppm (Septoria tritici; Zymoseptoria tritici, 504 h, read-out: Efficacy in % found, 80 ppm a.i.): 29% | Efficacy in % found (Venturia inaequalis; Table E1, 5 ppm a.i.): 8% | Efficacy in % found (Venturia inaequalis; Table E1, 10 ppm a.i.): 4% | Efficacy in % found (Venturia inaequalis; Table E1, 20 ppm a.i.): 4% | Ecotoxicity LC50-96 h found [1]: 0.89 ppm a.i. | pest or weed control at 20 ppm (Puccinia triticina; Puccinia triticina, 192 h, read-out: Efficacy in % found, 20 ppm a.i.): 0% | pest or weed control at 40 ppm (Puccinia triticina; Puccinia triticina, 192 h, read-out: Efficacy in % found, 40 ppm a.i.): 0% | pest or weed control at 80 ppm (Puccinia triticina; Puccinia triticina, 192 h, read-out: Efficacy in % found, 80 ppm a.i.): 0% | pest or weed control at 20 ppm (Puccinia triticina; Puccinia triticina, 192 h, read-out: Efficacy in % found, Table H1, 20 ppm a.i.): 0% | pest or weed control at 40 ppm (Puccinia triticina; Puccinia triticina, 192 h, read-out: Efficacy in % found, Table H1, 40 ppm a.i.): 0% | pest or weed control at 80 ppm (Puccinia triticina; Puccinia triticina, 192 h, read-out: Efficacy in % found, Table H1, 80 ppm a.i.): 22%

O=C(Cc1ccccc1)N/C(=N\OCC1CC1)c1c(C(F)(F)F)ccc(F)c1F [Example 15.008, cyflufenamid]
Efficacy % (Pyricularia oryzae; 4 ppm): 17% | Efficacy % (Pyricularia oryzae; 20 ppm): 91% | Efficacy in % found (Septoria tritici; 250 ppm a.i.): 14% | Efficacy in % found (Septoria tritici; 500 ppm a.i.): 29% | Efficacy in % found (Septoria tritici; 1000 ppm a.i.): 29% | Efficacy in % found (Venturia inaequalis; Table E2, 5 ppm a.i.): 0% | Efficacy in % found (Venturia inaequalis; Table E2, 10 ppm a.i.): 0% | Efficacy in % found (Venturia inaequalis; Table E2, 20 ppm a.i.): 4% | Ecotoxicity LC50-96 h found [1]: 5.2 ppm a.i. | Efficacy in % found (Puccinia triticina; 250 ppm a.i.): 0% | Efficacy in % found (Puccinia triticina; 500 ppm a.i.): 0% | Efficacy in % found (Puccinia triticina; 1000 ppm a.i.): 22% | Efficacy in % found (Leptosphaeria nodorum; 250 ppm a.i.): 0% | Efficacy in % found (Leptosphaeria nodorum; 500 ppm a.i.): 0% | Efficacy in % found (Leptosphaeria nodorum; 1000 ppm a.i.): 0%

mancozeb [5.013 mancozeb]
Efficacy in % found (Colletotrichum coccodes; Table B2, 12.5 ppm a.i.): 0% | Efficacy in % found (Colletotrichum coccodes; Table B2, 25 ppm a.i.): 0% | Efficacy in % found (Colletotrichum coccodes; Table B2, 50 ppm a.i.): 0% | Efficacy in % found (Alternaria solani; 12.5 ppm a.i., tomatoes, 3 days after inoculation): 28% | Efficacy in % found (Alternaria solani; 25 ppm a.i., tomatoes, 3 days after inoculation): 33% | Efficacy in % found (Alternaria solani; 50 ppm a.i., tomatoes, 3 days after inoculation): 77%
